Laboratory results taken from patent US9844519B1, “Method of treating TDP-43 proteinopathies using hexachlorophene” (University of South Florida, priority 2014, dated 2017).
Where two headings read alike, the source gives them in different places. Peptide text beside a SMILES is read from it. * marks the point of attachment. Cbz = O=C(OCc1ccccc1)*

Experiments:
rats = settings: pre-treatment prior to administration of B10; cited from earlier work
TDP-43 = molecular target: T1, TDP-43 (Mus musculus, UniProt Q921F2); test: InCell Western (ICW) drug screen for TDP-43 levels in N9 cells; format: cell-based; settings: for % TDP43 level: N9 cells treated 24 hours, DMSO vehicle control = 100
T1 construct: N9 cells expressing endogenous TDP-43 were treated with various concentrations of B10; endogenous in cells; host or cells: N9 mouse microglial cells
Experimental: To optimize the ICW technique for screening TDP-43 targeting drugs, N9 cells were seeded in a 96-well plate and processed for ICW by using various dilution of TDP-43 antibody.
For drug screening, N9 cells were treated with a panel of candidate drug molecules for 24 hours and the effect on TDP-43 levels was analyzed using the InCell Western assay.
To optimize TDP-43 targeting ICW, N9 cells were seeded in a 96-well plate and probed with different dilutions of TDP-43 antibody as previously described (Jinwal and Dickey, 2011). For the identification of candidate drug molecules, N9 cells were treated with an array of drugs for 24 hours and processed for ICW (Jinwal and Dickey, 2011). In brief, cells were fixed, washed with PBS and incubated in blocking buffer. Cells were then incubated in primary antibody to TDP-43 (1:1000) and GAPDH (1:3000) for overnight. After washing with 0.2% Tween-20 PBS, cells were incubated with fluorescently tagged secondary antibodies for 1 hour and 30 minutes. Fluorescence intensity was then recorded and quantified using the Odyssey Infrared Imaging System (LI-COR). ICW experiments were performed in duplicate.

ubiquitinated proteins = test: Western blot of ubiquitinated proteins in HEK293 cell samples; format: cell-based; settings: HEK293 samples from FIG. 4A, 24 hours, ubiquitin antibody
Experimental: (§1) HEK293 cells were treated with 3 and 10 μM B10 for 24 hours. An equivalent volume of DMSO was used for control treatments. […] Briefly, cells were lysed in Mammalian-Protein Extraction Reagent (M-PER; Pierce, Rockford, Ill.) containing 1× protease inhibitor mixture (Calbiochem, Billerica, Mass.), 1 mM phenylmethylsulfonyl fluoride (PMSF) and 1× phosphatase inhibitor I and II cocktails (Sigma). Protein concentration was determined using the Coomassie (Bradford) Protein Assay Kit (Pierce). Samples were analyzed using TDP-43, FUS, and GAPDH antibodies by Western blotting. Drug treatment experiments were performed in triplicate. For ubiquitinated protein analysis upon MG132 treatment, ubiquitin antibody (Santa Cruz Biotechnology) was used. Statistical analysis was performed using Microsoft Excel.

endogenous TDP-43 [1] = molecular target: T2, endogenous TDP-43 (Mus musculus, UniProt Q921F2); test: Western blotting of endogenous TDP-43 in N9 cells, dose response; format: cell-based; settings: 3 μM, 24 hours, Western blot
T2 construct: N9 cells expressing endogenous TDP-43 were treated with various concentrations of B10; endogenous in cells; host or cells: N9 mouse microglial cells
Experimental: N9 cells were treated with different concentration of B10 for 24 hours and levels of endogenous TDP-43 were determined by Western blotting.
For dose response experiments, N9 cells were treated with different concentrations of B10 for 24 hours. […] An equivalent volume of DMSO was used for control treatments for both sets of experiments. […] Briefly, cells were lysed in Mammalian-Protein Extraction Reagent (M-PER; Pierce, Rockford, Ill.) containing 1× protease inhibitor mixture (Calbiochem, Billerica, Mass.), 1 mM phenylmethylsulfonyl fluoride (PMSF) and 1× phosphatase inhibitor I and II cocktails (Sigma). Protein concentration was determined using the Coomassie (Bradford) Protein Assay Kit (Pierce). Samples were analyzed for Myc and GAPDH by Western blotting. […] Drug treatment experiments were repeated at least two times.

[2] = system: Myc-tagged WT TDP-43, C25 mutant, M337V and Q331K; test: Western blotting of Myc-tagged WT and mutant TDP-43 transfected in HEK293 cells; format: cell-based; settings: HEK293 cells transfected with Myc-tagged WT, 3 μM, 24 hours
HEK293 cells = format: cell-based; settings: human, 24 h
Experimental: (§2) Whether B10 treatment causes cytotoxicity was next tested. The inventors performed the LDH assay with N9 and HEK293 cells. […] B10 causes ˜3% and ˜13% cytotoxicity at 3 and 10 μM in the HEK293 cells, respectively (FIG. 5B).
(§3) The LDH assay was performed using the CytoTox 96 Non-Radioactive Cytotoxicity Assay from Promega as per manufacturer's instructions. Briefly, N9 and HEK cells were treated with different concentrations of hexachlorophene for 24 hours. Cells treated with a lethal dose of 150 μM hexachlorophene were used as the maximal LDH release control. Culture supernatant was collected and centrifuged at 2000 rpm to pellet debris. 50 μl of supernatant from each sample was transferred to a flat-bottom 96 well plate. The Substrate Mix provided in the kit was reconstituted with Assay Buffer. 50 μl of the reconstituted Substrate Mix was added to the culture supernatant. The plate was incubated at room temperature, protected from light, for 30 minutes. 50 μl of Stop Solution was added to each well at the end of the incubation period. Absorbance was read at 490 nm. The experiment was performed in triplicate for each cell line. Statistical analysis was performed using Microsoft Excel.

N9 cells = format: cell-based; settings: mouse, 24 h
Experimental: as §2, §3

endogenous TDP-43 [3] = molecular target: T3, endogenous TDP-43 (Homo sapiens, UniProt Q13148); test: Western blotting of endogenous TDP-43 in HEK293 cells; format: cell-based; settings: endogenous TDP-43, 3 μM, 24 hours, Western blot
T3 construct: HEK293 cells expressing endogenous TDP-43 and FUS; endogenous in cells; host or cells: HEK293
Experimental: as §1

FUS (Fused in Sarcoma) = test: Western blotting of endogenous FUS in HEK293 cells; format: cell-based
Experimental: as §1

C25 mutant of TDP-43 = molecular target: T4, C25 mutant of TDP-43 (Homo sapiens, UniProt Q13148); test: Immunofluorescence of cytoplasmic C25 mutant TDP-43 in HEK293 cells; format: cell-based; settings: 3 μM, 24 hours
T4 construct: the C25 cleaved fragment that localizes to the cytosol; expressed in transfected cells; host or cells: HEK293
Experimental: 24 hours after transfection, the medium was replaced and cells were treated with either DMSO or 3 μM B10 for 24 hours. […] Following three washes in PBS, cells were incubated in blocking buffer (1% BSA, 0.1% Tween-20 in PBS) for one hour. A mouse monoclonal antibody to the Myc tag at a dilution of 1:400 was applied for 1 hour. After three washes in PBS, cells were incubated with an Alexa488 tagged goat anti-mouse IgG secondary antibody at 1:800 for 1 hour. […] Coverslips were mounted on slides using Fluoromount G. Imaging was performed with a Zeiss AxioVision imager.

[4] = system: C25-TDP-43 transgenic C. elegans; test: Liquid thrashing motility assay in C25-TDP-43 transgenic C. elegans; format: in vivo; settings: C25 worms on NGM plates containing 5 μM or 10 μM B10
Experimental: (§4) For in vivo studies the inventors used a C. elegans model expressing the C25 fragment to analyze changes in behavior and pathological TDP-43 upon B10 treatment.
(§5) The Solid Method of drug dosing was used in which age-synchronized C. elegans eggs were plated on Nematode Growth Media (NGM) plates containing DMSO vehicle or 5 μM B10 or 10 μM B10.
(§6) A behavioral assay that measures liquid thrashing ability was used to analyze the effect of B10 treatment on motility in age synchronized C25 animals. For microscopic analysis adult worms were fixed on slide and imaged using fluorescence microscopy.

C25-TDP-43 = molecular target: T5, C25-TDP-43 (Homo sapiens, UniProt Q13148); test: Fluorescence microscopy of C25-TDP-43 aggregates in head neurons of transgenic C. elegans; format: in vivo; settings: C25 worms
T5 construct: a C. elegans model expressing the C25 fragment; expressed in transfected cells; host or cells: transgenic C. elegans (neurons)
Experimental: as §4, §5, §6

[5] = dose of about 10 mg/kg, transgenic TDP43 mouse model; cited from earlier work
[6] = system: Wnt-β-catenin signaling pathway; settings: B lymphoma cells; cited from earlier work
amyloid beta (Aβ) = molecular target: T6, amyloid beta (Aβ) (Homo sapiens, UniProt P05067); settings: cited from earlier work
T6 construct: the amyloid protein (Aβ) which is a proteolytic product of a precursor protein of much larger size

[7] = system: primary neuronal cultures; settings: cited from earlier work

T1 sequence (Q921F2 whole entry): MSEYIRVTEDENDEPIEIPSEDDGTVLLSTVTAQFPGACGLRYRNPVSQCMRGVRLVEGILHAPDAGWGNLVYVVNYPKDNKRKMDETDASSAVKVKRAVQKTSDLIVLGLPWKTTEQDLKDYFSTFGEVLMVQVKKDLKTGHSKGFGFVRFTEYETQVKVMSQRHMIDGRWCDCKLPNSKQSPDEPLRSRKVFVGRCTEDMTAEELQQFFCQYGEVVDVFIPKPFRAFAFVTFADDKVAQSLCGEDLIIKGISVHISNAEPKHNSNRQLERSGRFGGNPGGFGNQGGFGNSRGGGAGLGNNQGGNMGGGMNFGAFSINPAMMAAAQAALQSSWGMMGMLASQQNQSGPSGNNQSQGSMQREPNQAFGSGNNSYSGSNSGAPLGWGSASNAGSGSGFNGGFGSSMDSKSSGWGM
T4 sequence (Q13148 219-414 limits assumed, change not shown): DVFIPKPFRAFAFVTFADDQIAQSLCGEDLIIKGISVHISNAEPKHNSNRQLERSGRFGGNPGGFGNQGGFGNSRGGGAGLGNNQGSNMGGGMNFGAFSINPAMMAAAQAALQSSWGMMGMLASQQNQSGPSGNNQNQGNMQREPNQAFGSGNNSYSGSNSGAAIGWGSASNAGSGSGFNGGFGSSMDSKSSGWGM
T5 sequence (Q13148 219-414 limits assumed): as the sequence (Q13148 219-414 limits assumed, change not shown) above
T6 sequence (P05067 672-713 limits assumed): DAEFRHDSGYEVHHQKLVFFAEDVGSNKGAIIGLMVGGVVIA
T3 sequence (Q13148 whole entry): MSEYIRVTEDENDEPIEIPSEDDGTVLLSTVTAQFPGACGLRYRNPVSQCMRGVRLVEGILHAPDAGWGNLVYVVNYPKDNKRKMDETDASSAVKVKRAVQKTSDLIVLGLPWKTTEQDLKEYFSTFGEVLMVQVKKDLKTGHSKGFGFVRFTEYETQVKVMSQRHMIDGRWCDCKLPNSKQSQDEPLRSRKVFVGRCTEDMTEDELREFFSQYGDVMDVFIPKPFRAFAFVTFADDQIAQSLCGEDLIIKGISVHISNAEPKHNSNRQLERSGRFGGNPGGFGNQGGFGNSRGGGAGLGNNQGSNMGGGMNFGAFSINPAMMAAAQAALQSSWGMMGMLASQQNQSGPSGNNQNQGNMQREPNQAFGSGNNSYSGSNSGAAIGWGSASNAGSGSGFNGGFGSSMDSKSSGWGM
T2 sequence (Q921F2 whole entry): as the sequence (Q921F2 whole entry) above

For `CCOc1ccc2c(c1)C(C)=CC(C)(C)N2` [ethoxyquin], the “protection from toxicity induced by B10” value (rats) is listed as “protects rats from toxicity induced by B10”.
In the case of `OCCN1CCN(CCCN2c3ccccc3Sc3ccc(Cl)cc32)CC1` [B5, Perphenazine], the “% TDP43 level” value (TDP-43) is reported as 85%.
In the case of `C[N+](C)(C)C[C@H](O)CC(=O)[O-]` [L-carnitine], the “protection from toxicity induced by B10” value (rats) is listed as “protected rats from the toxicity of B10”.
With `CC(C)C[C@@H](C=O)NC(=O)[C@H](CC(C)C)NC(=O)[C@H](CC(C)C)NC(=O)OCc1ccccc1` [MG132] (Cbz-Leu-Leu-Leu-aldehyde) the “levels of ubiquitinated proteins” value (ubiquitinated proteins) was “increase in ubiquitinated proteins”.
For `Oc1c(Cl)cc(Cl)c(Cl)c1Cc1c(O)c(Cl)cc(Cl)c1Cl` [B10, Hexachlorophene], the “% TDP43 level” value (TDP-43) was 63%, the “decrease in levels of TDP-43 compared to the control” value (TDP-43; N9 cells, 24 hours) was roughly 40% and the “reduction of endogenous TDP-43 levels” value (endogenous TDP-43 [1]) was “approximately 50%”. For the same compound, the “decrease in levels of TDP-43 and its mutants” value [2] was “approximately 50%”, the “cytotoxicity (LDH release)” value (HEK293 cells; 3 μM) was roughly 3% and the “cytotoxicity (LDH release)” value (HEK293 cells; 10 μM) was roughly 13%. The “cytotoxicity (LDH release)” value (N9 cells; 3 μM) was roughly 6%, the “cytotoxicity (LDH release)” value (N9 cells; 10 μM) was roughly 23% and the “reduction of TDP-43 levels” value (endogenous TDP-43 [3]) was roughly 50%. For the same compound, the “effect on levels of FUS” value (FUS (Fused in Sarcoma)) was “increases levels of FUS”, the “increase of FUS levels” value (FUS (Fused in Sarcoma); 3 μM, 24 hours, Western blot) was roughly 300% and the “amount of cytoplasmic C25 mutant TDP-43” value (C25 mutant of TDP-43) was “decreases the amount of cytoplasmic C25 mutant TDP-43”. The “levels of ubiquitinated proteins” value (ubiquitinated proteins) was “slight increase in ubiquitinated proteins”, the “motility (liquid thrashing)” value [4] was “improved motility of C25 worms” and the “accumulation of TDP-43 in neurons in the head region” value (C25-TDP-43) was “decreased the accumulation of TDP-43 in the neurons in the head region of C25 worms”. For the same compound, the brain permeability [5] was 50%, the “effect on Wnt-β-catenin signaling pathway” value [6] was “inhibit the Wnt-β-catenin signaling pathway in B lymphoma cells” and the “effect on Aβ fibril formation” value (amyloid beta (Aβ)) was “inhibit amyloid beta (Aβ) fibril formation”. For the same compound, the “protection from Aβ-induced toxicity” value [7] was “protect primary neuronal cultures from Aβ-induced toxicity”.
For `NS(=O)(=O)c1cc2c(cc1C(F)(F)F)NCNS2(=O)=O` [B8, Hydroflumethiazide], the “% TDP43 level” value (TDP-43) was 89%.
For `CO[C@H]1/C=C/O[C@@]2(C)Oc3c(C)c(O)c4c(O)c(c(/C=N/N5CCN(C)CC5)c(O)c4c3C2=O)NC(=O)/C(C)=C\C=C\[C@H](C)[C@H](O)[C@@H](C)[C@@H](O)[C@@H](C)[C@H](OC(C)=O)[C@@H]1C` [B6, Rifampicin], the “% TDP43 level” value (TDP-43) was 103%.
In the case of `Nc1ccc(S(=O)(=O)c2ccc(N)cc2)cc1` [B7, Dapsone], the “% TDP43 level” value (TDP-43) is reported as 100%.
In the case of `CCCC(C(=O)OCCN(CC)CC)(c1ccccc1)c1ccccc1.Cl` [SKF-525A, 2-diethylaminoethyl-2,2-diphenylvalerate-Hcl], the “protection from toxicity induced by B10” value (rats) is given as “lessened toxicity”.
